In DBAASP:
Converted amounts (≈) assume the structure as drawn.

Key:
Assay in all cases: ≥ marks a high value that may be exact or a test limit, other limits are often not marked, values filed in µg/mL are converted to µM
[1] = tested on: Bacillus subtilis ATCC 6633
[2] = tested on: Staphylococcus aureus ATCC 2592
[3] = tested on: Escherichia coli K-12
[4] = tested on: Staphylococcus aureus USA 300
[5] = tested on: Bacillus subtilis 168
[6] = tested on: Candida albicans ATCC 2002
[7] = tested on: Escherichia coli ATCC 25922
[8] = tested on: Pseudomonas aeruginosa ATCC 9027
[9] = tested on: Pseudomonas aeruginosa PAO1
[10] = tested on: Staphylococcus aureus ATCC BAA-1556
[11] = tested on: Bacillus subtilis

## CC[C@H](C)[C@H](NC(=O)[C@@H](NC(=O)[C@@H](N)Cc1ccccc1)[C@@H](C)CC)C(=O)N[C@H](C(=O)NCC(=O)N[C@@H](CC(C)C)C(=O)N[C@H](C(=O)N[C@@H](CCCN=C(N)N)C(=O)NCC(=O)N[C@@H](CC(C)C)C(=O)N[C@H](C(=O)N[C@@H](CCCCN)C(=O)N[C@@H](CC(C)C)C(=O)N[C@@H](Cc1ccccc1)C(N)=O)[C@@H](C)O)C(C)C)[C@@H](C)O [FIITGLVRGLTKLF]
[1]
  MIC: 15.8 µM (≈ 25 µg/mL)
[2]
  MIC: 7.92 µM (≈ 12.5 µg/mL)

## CC[C@H](C)[C@H](NC(=O)[C@H](CC(C)C)NC(=O)[C@H](C)NC(=O)[C@@H]1CCCN1C(=O)[C@H](CCCN=C(N)N)NC(=O)[C@@H](N)Cc1ccccc1)C(=O)N[C@H](C(=O)N[C@@H](CCCN=C(N)N)C(=O)N[C@H](C(=O)N[C@@H](CCCCN)C(=O)NCC(=O)N[C@H](C(=O)N[C@@H](CCCN=C(N)N)C(=O)N[C@@H](CC(C)C)C(=O)O)[C@@H](C)O)[C@@H](C)O)C(C)C [FRPALIVRTKGTRL]
[3]
  MIC: 30 µM (≈ 48.8 µg/mL)
[4]
  MIC: 30 µM (≈ 48.8 µg/mL)

## CC[C@H](C)[C@H](NC(=O)[C@H](CCCN=C(N)N)NC(=O)[C@H](CCC(N)=O)NC(=O)[C@@H](NC(=O)[C@@H](NC(=O)[C@H](CCCN=C(N)N)NC(=O)[C@H](CCCCN)NC(=O)[C@H](Cc1ccccc1)NC(=O)CN)[C@@H](C)CC)C(C)C)C(=O)N[C@@H](C)C(=O)N[C@@H](CC(=O)O)C(=O)N[C@@H](Cc1ccccc1)C(=O)N[C@@H](CC(C)C)C(=O)N[C@@H](CCCN=C(N)N)C(=O)N[C@@H](CC(N)=O)C(=O)N[C@@H](CC(C)C)C(=O)N[C@H](C(N)=O)C(C)C [GFKRIVQRIADFLRNLV]
[3]
  MIC: ≥ 60 µM
[4]
  MIC: 7.5 µM (≈ 15.3 µg/mL)

## CC[C@H](C)[C@H](NC(=O)[C@H](CCCCN)NC(=O)[C@H](CCCN=C(N)N)NC(=O)CNC(=O)[C@H](CC(C)C)NC(=O)[C@H](CO)NC(=O)[C@H](CCCN=C(N)N)NC(=O)[C@H](CC(C)C)NC(=O)CNC(=O)CN)C(=O)N[C@@H](CC(C)C)C(=O)N[C@@H](CCCN=C(N)N)C(=O)N[C@@H](C)C(=O)N[C@@H](Cc1c[nH]c2ccccc12)C(=O)N[C@@H](CCCCN)C(=O)N[C@@H](CCCCN)C(=O)N[C@@H](Cc1ccc(O)cc1)C(=O)NCC(=O)O [GGLRSLGRKILRAWKKYG]
[5]
  MIC: 8 µM (≈ 16.5 µg/mL)
[3]
  MIC: 2 µM (≈ 4.12 µg/mL)

## CC[C@H](C)[C@H](NC(=O)CNC(=O)[C@@H]1CCCN1C(=O)CNC(=O)[C@H](CC(C)C)NC(=O)[C@H](CC(N)=O)NC(=O)[C@H](C)NC(=O)[C@H](Cc1ccccc1)NC(=O)[C@H](CC(N)=O)NC(=O)[C@H](C)NC(=O)[C@H](CCCN=C(N)N)NC(=O)[C@H](Cc1ccccc1)NC(=O)[C@H](C)NC(=O)[C@@H](NC(=O)[C@H](CCCN=C(N)N)NC(=O)[C@H](Cc1c[nH]c2ccccc12)NC(=O)[C@H](Cc1ccc(O)cc1)NC(=O)[C@H](CC(=O)O)NC(=O)[C@H](C)NC(=O)[C@H](CC(C)C)NC(=O)CN)[C@@H](C)O)C(=O)N[C@@H](CCCN=C(N)N)C(=O)N[C@H]1CSSC[C@@H](C(=O)O)NC(=O)[C@H](CCCN=C(N)N)NC(=O)[C@H](C)NC(=O)[C@H](CO)NC(=O)[C@H](CCCCN)NC1=O [GLADYWRTAFRANFANLGPGIRCKSARC]
[6]
  MIC: ≥ 32 µM
[7]
  MIC: 2 µM (≈ 6.23 µg/mL)
[8]
  MIC: 6 µM (≈ 18.7 µg/mL)
[2]
  MIC: 1 µM (≈ 3.11 µg/mL)

## CC[C@H](C)[C@H](NC(=O)[C@H](C)NC(=O)[C@@H]1CCCN1C(=O)[C@@H](NC(=O)[C@@H](NC(=O)[C@H](Cc1cnc[nH]1)NC(=O)[C@H](CO)NC(=O)[C@@H](NC(=O)[C@@H](NC(=O)[C@H](CO)NC(=O)CNC(=O)[C@H](CC(C)C)NC(=O)[C@H](CC(C)C)NC(=O)CNC(=O)[C@H](CC(C)C)NC(=O)[C@H](CC(C)C)NC(=O)CN)C(C)C)C(C)C)C(C)C)C(C)C)C(=O)N[C@H](C(=O)NCC(=O)N[C@@H](Cc1cnc[nH]1)C(=O)N[C@@H](Cc1ccccc1)C(N)=O)C(C)C [GLLGLLGSVVSHVVPAIVGHF]
[5]
  MIC: 25 µM (≈ 51.8 µg/mL)
[3]
  MIC: ≥ 100 µM
[9]
  MIC: > 100 µM
[4]
  MIC: 6.2 µM (≈ 12.8 µg/mL)

## CC[C@H](C)[C@H](NC(=O)[C@H](Cc1c[nH]c2ccccc12)NC(=O)[C@H](CCCN=C(N)N)NC(=O)[C@H](CCCN=C(N)N)NC(=O)[C@H](Cc1c[nH]c2ccccc12)NC(=O)[C@@H](N)CCCCN)C(=O)N[C@@H](CCCN=C(N)N)C(=O)N[C@@H](CC(C)C)C(=O)N[C@@H](CC(C)C)C(N)=O [KWRRWIRLL]
[10]
  MIC: 25 µM (≈ 33.1 µg/mL)

## CC(C)C[C@H](NC(=O)[C@H](CC(C)C)NC(=O)[C@H](CCCCN)NC(=O)[C@H](CC(C)C)NC(=O)[C@H](CC(C)C)NC(=O)[C@H](CC(C)C)NC(=O)[C@H](CC(C)C)NC(=O)[C@H](CCCCN)NC(=O)[C@@H](N)CC(C)C)C(N)=O [LKLLLLKLL]
[10]
  MIC: ≥ 100 µM

## CC(C)C[C@H](NC(=O)[C@H](CC(C)C)NC(=O)[C@H](CC(C)C)NC(=O)[C@H](CC(C)C)NC(=O)[C@H](CCCCN)NC(=O)[C@H](CC(C)C)NC(=O)[C@H](CCCCN)NC(=O)[C@H](CC(C)C)NC(=O)[C@@H](N)CC(C)C)C(N)=O [LLKLKLLLL]
[10]
  MIC: ≥ 100 µM

## CC(C)C[C@H](NC(=O)[C@H](CC(C)C)NC(=O)[C@H](CC(C)C)NC(=O)[C@H](CCCCN)NC(=O)[C@H](CCCCN)NC(=O)[C@H](CC(C)C)NC(=O)[C@H](CC(C)C)NC(=O)[C@H](CC(C)C)NC(=O)[C@@H](N)CC(C)C)C(N)=O [LLLLKKLLL]
[10]
  MIC: ≥ 100 µM

## CC(C)C[C@H](NC(=O)[C@H](Cc1c[nH]c2ccccc12)NC(=O)[C@H](Cc1c[nH]c2ccccc12)NC(=O)[C@H](CC(C)C)NC(=O)[C@H](CCCN=C(N)N)NC(=O)[C@H](Cc1c[nH]c2ccccc12)NC(=O)[C@@H](N)CC(C)C)C(=O)N[C@@H](Cc1c[nH]c2ccccc12)C(=O)N[C@@H](Cc1c[nH]c2ccccc12)C(N)=O [LWRLWWLWW]
[10]
  MIC: 3.12 µM (≈ 4.51 µg/mL)

## CC[C@H](C)[C@H](NC(=O)[C@H](CCC(N)=O)NC(=O)[C@H](CCCCN)NC(=O)CNC(=O)[C@H](CC(C)C)NC(=O)[C@H](CCC(N)=O)NC(=O)CNC(=O)[C@H](CC(C)C)NC(=O)[C@H](CCCCN)NC(=O)[C@H](C)NC(=O)[C@H](CCC(=O)O)NC(=O)[C@H](CCCCN)NC(=O)[C@@H](NC(=O)CNC(=O)[C@@H](NC(=O)[C@@H](NC(=O)[C@@H](NC(=O)[C@@H](N)CO)[C@@H](C)CC)[C@@H](C)CC)[C@@H](C)O)[C@@H](C)O)C(=O)N[C@@H](C)C(=O)N[C@H]1CSSC[C@@H](C(=O)O)NC(=O)[C@H]([C@@H](C)O)NC(=O)[C@H](CC(N)=O)NC(=O)CNC(=O)[C@H](CC(C)C)NC(=O)[C@H](CCCN=C(N)N)NC1=O [SIITGTKEAKLGQLGKQIACRLGNTC]
[11]
  MIC: ≥ 44.4 µM
[6]
  MIC: 11.1 µM (≈ 30 µg/mL)
[7]
  MIC: 44.4 µM (≈ 120 µg/mL)
[2]
  MIC: 5.55 µM (≈ 15 µg/mL)

## CC[C@H](C)[C@H](NC(=O)[C@H](CCC(N)=O)NC(=O)[C@H](CCCCN)NC(=O)[C@H](Cc1c[nH]c2ccccc12)NC(=O)[C@H](CC(C)C)NC(=O)[C@H](CCC(N)=O)NC(=O)[C@@H]1CCCN1C(=O)[C@H](CC(C)C)NC(=O)[C@H](CCCCN)NC(=O)[C@H](C)NC(=O)[C@H](CCC(=O)O)NC(=O)[C@H](CCCCN)NC(=O)[C@@H](NC(=O)[C@H](CCSC)NC(=O)[C@@H](NC(=O)[C@@H](NC(=O)[C@@H](NC(=O)[C@@H](N)CO)[C@@H](C)CC)[C@@H](C)CC)[C@@H](C)O)[C@@H](C)O)C(=O)N[C@@H](C)C(=O)N[C@H]1CSSC[C@@H](C(=O)O)NC(=O)[C@H]([C@@H](C)O)NC(=O)[C@H](CC(N)=O)NC(=O)CNC(=O)[C@H](CC(C)C)NC(=O)[C@H](CCCN=C(N)N)NC1=O [SIITMTKEAKLPQLWKQIACRLGNTC]
[11]
  MIC: 20.4 µM (≈ 60 µg/mL)
[6]
  MIC: 5.09 µM (≈ 15 µg/mL)
[7]
  MIC: 10.2 µM (≈ 30 µg/mL)
[2]
  MIC: 5.09 µM (≈ 15 µg/mL)

## CC(C)C[C@H](NC(=O)[C@H](Cc1c[nH]c2ccccc12)NC(=O)[C@H](CCCN=C(N)N)NC(=O)[C@H](CC(C)C)NC(=O)[C@H](Cc1c[nH]c2ccccc12)NC(=O)[C@H](CC(C)C)NC(=O)[C@H](CC(C)C)NC(=O)[C@H](Cc1c[nH]c2ccccc12)NC(=O)[C@@H](N)Cc1c[nH]c2ccccc12)C(N)=O [WWLLWLRWL]
[10]
  MIC: 3.12 µM (≈ 4.28 µg/mL)

## CC(C)C[C@H](NC(=O)[C@H](Cc1c[nH]c2ccccc12)NC(=O)[C@H](CC(C)C)NC(=O)[C@H](CC(C)C)NC(=O)[C@H](Cc1c[nH]c2ccccc12)NC(=O)[C@H](Cc1c[nH]c2ccccc12)NC(=O)[C@H](CC(C)C)NC(=O)[C@H](Cc1c[nH]c2ccccc12)NC(=O)[C@@H](N)Cc1c[nH]c2ccccc12)C(N)=O [WWLWWLLWL]
[10]
  MIC: ≥ 100 µM

## CC(C)C[C@H](NC(=O)[C@H](Cc1c[nH]c2ccccc12)NC(=O)[C@H](Cc1c[nH]c2ccccc12)NC(=O)[C@H](CC(C)C)NC(=O)[C@H](Cc1c[nH]c2ccccc12)NC(=O)[C@H](Cc1c[nH]c2ccccc12)NC(=O)[C@H](CCCN=C(N)N)NC(=O)[C@H](Cc1c[nH]c2ccccc12)NC(=O)[C@@H](N)Cc1c[nH]c2ccccc12)C(N)=O [WWRWWLWWL]
[10]
  MIC: 3.12 µM (≈ 4.74 µg/mL)
